Assays:
[1] = system: monocrotaline rat model of PH; conditions: drugs delivered systemically; cited from earlier work
[2] = Encapsulation efficiency, loading and release kinetics of drugs from PLGA microparticles; format: physicochemical; conditions: different formulations (single drug or combination); 0.2% tween 80, 37° C.
Protocol: The morphology of the microparticles was characterized using scanning electron microscopy (SEM—JEOL JSM6510) and the average size of the blank microparticles was determined using dynamic light scattering (Malvern, Worcestershire, UK). The release kinetics of the drugs from PLGA microparticles was determined by incubating 1 mg of microparticles with or without drugs in 1 mL of 0.2% tween 80 (Fisher Scientific, Pittsburgh, PA) in centrifuge tubes on end-over-end rotator at 37° C. Every day for 10 days, the tubes were centrifuged at 2000 g for 5 min, 0.8 mL of the supernatant was retrieved and frozen at −20° C., and 0.8 mL of fresh 0.2% tween 80 was replaced in the tubes. These tubes were then returned to the incubator.
In order to assess the concentration of verteporfin, UV-vis spectroscopy plate reader (SpectraMax, Molecular Devices, Sunnyvale, CA) was utilized. […] Using this wavelength, a standard curve was plotted, and the concentration of the released verteporfin from microparticles was determined. The cumulative amount of verteporfin released from the microparticles was quantified and utilized to determine the percentage encapsulation efficiency and percentage loading.
In order to assess the concentration of CB-839, a high-performance liquid chromatography (HPLC Ultimate 3000, Fisher Scientific, Pittsburgh, PA) protocol was developed. […]

CN(C)c1ccc(C2Nc3ccc4ccccc4c3C3=C2C(=O)CC(C)(C)C3)cc1Br (centres unmarked) [C968, 5-(3-Bromo-4-(dimethylamino)phenyl)-2,2-dimethyl-2,3,5,6-tetrahydrobenzo[a]phenanthridin-4(1H)-one]
reversal of PH (hemodynamic and histopathologic manifestations) [1]: substantial reversal

O=C(Cc1cccc(OC(F)(F)F)c1)Nc1ccc(CCCCc2nnc(NC(=O)Cc3ccccn3)s2)nn1 [CB-839]
duration of sustained release from PLGA microparticles [2]: 10 days | reversal of PH (hemodynamic and histopathologic manifestations) [1]: substantial reversal

C=Cc1c(C)c2cc3nc(cc4[nH]c(cc5nc(cc1[nH]2)C(C)=C5CCC(=O)O)c(CCC(=O)OC)c4C)[C@@]1(C)C3=CC=C(C(=O)OC)[C@H]1C(=O)OC [verteporfin, 3-[(23S,24R)-14-ethenyl-5-(3-methoxy-3-oxopropyl)-22,23-bis(methoxycarbonyl)-4,10,15,24-tetramethyl-25,26,27,28-tetraazahexacyclo[16.6.1.1^3,6.1^8,11.1^13,16.0^19,24]octacosa-1,3,5,7,9,11(27),12,14,16,18(25),19,21-dodecaen-9-yl]propanoic acid]
duration of sustained release from PLGA microparticles [2]: 6 days | reversal of PH (hemodynamic and histopathologic manifestations) [1]: substantial reversal
